Like-named read-outs stand apart in the source and are kept apart here.
Key:
[1] = molecular target: T1, MC4R (Homo sapiens, UniProt P32245); assay: Assay of MC4R antagonist activity in cells in vitro (cAMP assay, Melanotan I stimulation); type: cell-based; conditions: flipin-293-MC4 cell line, Melanotan I as agonist
T1 construct: expressed in transfected cells; host or cells: flipin-293-MC4 (Flp-In 293 host, hygromycin selection)
Protocol: Test Example 1: Assay of MC4R antagonist activity in cells in vitro
a. Experimental consumables:
b. Experimental steps • ✔ Cell line: flipin-293-MC4 • ✔ Cell culture medium: DMEM, 10% fetal bovine serum, 1 × PS, 200 µg/mL hygromycin • ✔ Experimental buffer: HBSS, 20 mM HEPES, 0.1% BSA, 500 µM IBMX • ✔ Positive compound: ML00253764 c. Antagonist detection • 1. Digested cells were suspended in the experimental buffer, and then inoculated into the 384-well cell culture plate. • 2. The to-be-detected compound was added to the cell plate, and incubated at 37°C for 10 min. • 3. Melanotan I was added to the cell plate, and incubated at 37°C for 30 min. • 4. Two detection reagents EU cAMP tracer and ulight anti camp were thawed and diluted with a lysis solution in the kit. • 5. The diluted detection reagents were added to the cell plate and incubated at room temperature for 1 h. • 6. Reading was carried out by Envision. (Excitation light: 340 nm, emission light: 615 nm and 665 nm) d. Data analysis • 1. %Inhibition calculation: %Inhibition = (Signalcmpd−SignalAve_VC)/(SignalAve_PC−SignalAve_VC) × 100. [formula] • Signalcmpd: compound signal value; • SignalAve_VC: negative control signal value; • SignalAve_PC: positive control signal value; • %inhibition: inhibition percentage. • 2. Calculation of IC50 of the compound using the nonlinear fitting equation in GraphPad: Y = Bottom + (Top−Bottom)/(1+10^(∧)((LogIC50−X)×HillSlope)) [formula] X: logarithmic value of the concentration of the compound; Y: inhibition percentage

[2] = Pharmacokinetic study on the tested compound in SD male rats; type: in vivo; conditions: IV 1 mpk/PO 2 mpk; for AUC / Cmax / clearance / half-life: Sprague-Dawley (SD), rat, plasma
Protocol: On the day of administration, the tested compound was prepared with 5% DMSO + 5% Solutol + 90% Saline as a solvent into a solution for administration for use.
The solution for administration was administered to an intravenous injection IV group at a dose of 1 mg/kg in a concentration of 0.2 mg/mL. The solution for administration was administered to an oral gavage PO group at a dose of 2 mg/kg in a concentration of 0.2 mg/mL. The animals in the PO group were required to fast overnight in advance, drink water freely, and be fed 4 hours after administration. The IV group was not required to fast.
The animals were weighed before administration. On the day of administration, the solution was IV/PO-administered once in an administration amount calculated based on the weight. In the IV group, blood was collected from veins at 0.083 h, 0.25 h, 0.5 h, 1.0 h, 2.0 h, 4.0 h, 8.0 h, and 24 h after administration. In the PO group, blood was collected from veins at 0.25 h, 0.5 h, 1.0 h, 2.0 h, 4.0 h, 6.0 h, 8.0 h, and 24 h after administration. The amount of blood collected was about 0.20 mL. K2-EDTA was used in blood collection tubes as an anticoagulant. The collected blood sample was centrifuged (centrifugation conditions: 6800 g, 6 min, 2°C to 8°C) within 1 h to obtain plasma. The to-be-tested sample was stored in a refrigerator at -80°C before analysis.
The concentration of the tested compound in the plasma of the SD male rats was detected by the validated LC-MS/MS method.

[3] = molecular target: T2, CYP 3A4M (Homo sapiens, UniProt P08684); assay: Inhibition of P450 enzyme (CYP 3A4, midazolam as substrate) in human liver microsomes; type: in vitro ADME
T2 construct: from tissue; host or cells: human liver microsomes (HLM)
T2 sequence (P08684 whole entry): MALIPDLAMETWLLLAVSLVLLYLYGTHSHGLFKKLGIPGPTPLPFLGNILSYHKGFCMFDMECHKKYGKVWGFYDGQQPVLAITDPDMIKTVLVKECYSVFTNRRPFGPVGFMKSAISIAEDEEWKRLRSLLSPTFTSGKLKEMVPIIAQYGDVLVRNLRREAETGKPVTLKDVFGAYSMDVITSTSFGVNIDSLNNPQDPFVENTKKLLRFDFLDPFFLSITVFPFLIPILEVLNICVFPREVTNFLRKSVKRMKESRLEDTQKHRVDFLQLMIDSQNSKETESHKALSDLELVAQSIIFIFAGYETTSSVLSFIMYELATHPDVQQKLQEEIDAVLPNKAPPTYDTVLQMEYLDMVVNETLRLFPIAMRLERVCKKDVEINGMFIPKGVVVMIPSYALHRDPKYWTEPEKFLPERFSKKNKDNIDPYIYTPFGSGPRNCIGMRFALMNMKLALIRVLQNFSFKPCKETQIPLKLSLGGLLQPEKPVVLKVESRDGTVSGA
Protocol: The inhibitory effect of the tested compound on 3A4-M (with midazolam as a substrate) in human liver microsomes is evaluated in vitro to assess the safety of the compound.
In this study, the inhibition of CYP 3A4 enzyme in human liver microsomes by the tested compound was investigated using the human liver microsomal system and the cytochrome P450 enzyme probe substrate recommended by the FDA Guidance for In Vitro Drug Interaction Studies. The human liver microsomes were incubated separately with the tested compound of different concentrations (0 µM to 30.0 µM) and corresponding probe substrates. Then, the changes of activity of the CYP enzyme were determined, and the IC50 value was calculated, to evaluate the inhibitory potential of the tested compound on the CYP 3A4 enzyme.
Test group (TG): The human liver microsomes were incubated separately with the tested compound of different concentrations, NADPH (in a final concentration of 2.00 mM), and probe substrates (Table 4) of different enzymes in subfamilies for 5 min.
Positive control group (PC): The human liver microsomes were incubated separately with an inhibitor (Table 4), NADPH (in a final concentration of 2.00 mM), and a probe substrate (Table 4) of 3A4M for 5 min. Table 4 Probe substrate of each enzyme in the subfamily, inhibitor, and incubation system
At the end of the incubation, the reaction was terminated with a stop solution.
8 µL of 30 mM test sample was transferred to 12 µL of DMSO to give a 12 mM test sample intermediate solution, and then diluted with DMSO to give test sample working solutions in different concentrations (12 mM, 4 mM, 1.33 mM, 0.433 mM, 0.147 mM, 0.049 mM, and 0.0164 mM).
To 12 µL of DMSO was added 8 µL of 2.5 mM CYP3A4 inhibitor ketoconazole stock solution to give a 1 mM positive control inhibitor working solution.
(§1) 199 µL of 0.2 mg/mL HLM and 1 µL of test sample working solution (12 mM, 4 mM, 1.33 mM, 0.433 mM, 0.147 mM, 0.049 mM, and 0.0164 mM) were mixed uniformly. 30 µL of this liver microsome solution was added to a 96-well plate, and then 10 µL of substrate working solution (320 µM testosterone or 20 µM midazolam) was added. This preparation process was carried out in duplicate. After pre-incubation at 37°C for 5 min, 15 µL of 8 mM NADPH solution pre-warmed at 37°C for 5-10 min was added to initiate the reaction. After incubation in the 96-well plate at 37°C for 5 min, 180 µL of acetonitrile/methanol (ACN:MeOH = 1:1) solution containing the internal standard (IS) was added to terminate the reaction. The 96-well plate was shaken at 600 rpm for 5-10 min, and then centrifuged at 6000 rpm for 15 min. 80 µL of supernatant was taken and added to 120 µL of ultrapure water, shaken uniformly, and then detected by LC-MS/MS.
as §1, with “1 mM positive control inhibitor (ketoconazole)” for “test sample”, “solution” for “solution (12 mM, 4 mM, 1.33 mM, 0.433 mM, 0.147 mM, 0.049 mM, and 0.0164 mM)”, “(20” for “(320 µM testosterone or 20”, “ACN:MeOH (1:1)” for “acetonitrile/methanol (ACN:MeOH = 1:1)”, “IS” for “the internal standard (IS)”, “LC-MS/MS. […]” for “LC-MS/MS.”

[4] = human liver microsomes 0.100 mg/mL, midazolam 5.00 µM as substrate, 5 min incubation, read-out: CYP 3A4M IC50

T1 sequence (P32245 whole entry): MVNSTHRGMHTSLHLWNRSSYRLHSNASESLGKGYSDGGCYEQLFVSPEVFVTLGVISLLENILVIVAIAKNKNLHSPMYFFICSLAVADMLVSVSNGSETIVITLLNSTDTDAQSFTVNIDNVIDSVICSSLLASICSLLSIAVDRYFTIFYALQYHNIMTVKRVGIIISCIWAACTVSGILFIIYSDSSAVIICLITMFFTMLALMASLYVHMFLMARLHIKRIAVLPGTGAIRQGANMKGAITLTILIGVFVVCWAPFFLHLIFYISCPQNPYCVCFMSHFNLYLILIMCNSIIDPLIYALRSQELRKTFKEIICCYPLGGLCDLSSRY

| Compound | IC50 [1] [nM] | F [2] [%] | AUC [2] [ng·h/mL] | Cmax [2] [ng/mL] | clearance [2] [mL/min/kg] | half-life [2] [min] | IC50 [3, 4] [nM] | IC50 [3] [nM] |
| --- | --- | --- | --- | --- | --- | --- | --- | --- |
| COc1cc([C@@H](C)C(=O)N2CC[C@H](Nc3ccc(-c4ncccn4)c(C)n3)C2)c(F)cn1 [Compound 001-1, (R)-2-(5-fluoro-2-methoxypyridine-4-yl)-1-((S)-3-((6-methyl-5-(pyrimidine-2-yl)pyridine-2-yl)amino)pyrrolidine-1-yl)propan-1-one] | 3.95 | 86.8 | 442 | 338 | 65.3 | 42.6 |  |  |
| COc1cc([C@@H](C)C(=O)N2C[C@H](C)[C@H](Nc3ccc(-c4ncccn4)c(C)n3)C2)c(F)cn1 [Compound 051-1, (R)-2-(5-fluoro-2-methoxypyridine-4-yl)-1-((3 S,4S)-3-methyl-4-(6-methyl-5-(pyrimidine-2-yl)pyridine-2-yl-amino)pyrrolidine-1-yl)propane-1-one] | 2.96 | 52.7 | 317 | 329 | 55.2 | 15 |  |  |
| COc1cc([C@@H](C)C(=O)N2C[C@@H](Nc3ccc(-c4ncccn4)c(C)n3)C3(CC3)C2)c(F)cn1 [Compound 056-1, (2R)-2-(5-fluoro-2-methoxypyridine-4-yl)-1-[(7S)-7-{[6-methyl-5-(pyrimidine-2-yl)pyridine-2-yl]amino}-5-azaspiro[2.4]heptane-5-yl]propan-1-one] | 4.23 | 61.5 | 566 | 380 | 35.8 | 53.4 |  |  |
| COc1cc([C@@H](C)C(=O)N2CC[C@H](Nc3ccc(-c4ncccn4)c(C)n3)C2)c(Cl)cn1 [Compound 083-1, (R)-2-(5-chloro-2-methoxypyridine-4-yl)-1-((S)-3-((6-methyl-5-(pyrimidine-2-yl)pyridine-2-yl)amino)pyrrolidine-1-yl)propane-1-one] | 1.82 | 31.3 | 240 | 156 | 43.7 | 39 | 5800 |  |
| COc1cc([C@@H](C)C(=O)N2CC[C@H](Nc3ccc(-c4nccc(C#N)n4)c(C)n3)C2)c(F)cn1 [Compound 111, 2-(6-(((S)-1-((R)-2-(5-fluoro-2-methoxypyridine-4-yl)propionyl)pyrrolidine-3-yl)amino)-2-methylpyridine-3-yl)pyrimidine-4-nitrile] | 3.4 |  |  |  |  |  | 2940 |  |
| COc1cc([C@@H](C)C(=O)N2C[C@H](C)[C@H](Nc3ccc(-c4ncccn4)c(C)n3)C2)c(Cl)cn1 [Compound 112, (R)-2-(5-chloro-2-methoxypyridine-4-yl)-1-((3 S,4S)-3-methyl-4-(6-methyl-5-(pyrimidine-2-yl)pyridine-2-yl-amino)pyrrolidine-1-yl)propane-1-one] | 2.3 | 33.8 | 179 | 157 | 62.5 | 15 |  |  |
| COc1cc([C@@H](C)C(=O)N2C[C@@H](Nc3ccc(-c4nccc(C#N)n4)c(C)n3)C3(CC3)C2)c(F)cn1 [Compound 116, 2-(6-(((S)-5-((R)-2-(5-fluoro-2-methoxypyridine-4-yl)propionyl)-5-azaspiro[2.4]heptane-7-yl)amino)-2-methylpyridine-3-yl)pyrimidine-4-nitrile] | 2.15 |  |  |  |  |  | > 30000 |  |
| COc1cc([C@@H](C)C(=O)N2C[C@@H](Nc3ccc(-c4cn(C)nn4)c(C)n3)C3(CC3)C2)c(Cl)cn1 [Compound 165, (R)-2-(5-chloro-2-methoxypyridine-4-yl)-1-((S)-7-((6-methyl-5-(1-methyl-1H-1,2,3-triazol-4-yl)pyridine-2-yl)amino)-5-azaspiro[2.4]hept-5-yl)propan-1-one] | 2.86 | 56.0 | 858 | 577 | 22.3 | 39 |  |  |
| COc1cc([C@@H](C)C(=O)N2C[C@@H](Nc3ccc(-c4cn(C)c(OC(F)F)n4)c(C)n3)C3(CC3)C2)c(F)cn1 [Compound 185, (R)-1-((S)-7-((5-(2-(difluoromethoxy)-1-methyl-1H-imidazol-4-yl)-6-methylpyridine-2-yl)amino)-5-azaspiro[2.4]hept-5-yl)-2-(5-fluoro-2-methoxypyridine-4-yl)propan-1-one] | 0.54 | 22.9 | 170 | 129 | 45.4 | 40.8 |  |  |
| COc1cc([C@@H](C)C(=O)N2CC[C@H](Nc3ccc(-c4ncccn4)c(C)n3)C2)c(Br)cn1 [Compound 200, (R)-2-(5-bromo-2-methoxypyridine-4-yl)-1-((S)-3-((6-methyl-5-(pyrimidine-2-yl)pyridine-2-yl)amino)pyrrolidine-1-yl)propan-1-one] | 0.98 |  |  |  |  |  | 3750 |  |
| COc1cc([C@@H](C)C(=O)N2C[C@@H](Nc3ccc(-c4ncccn4)c(C)n3)C3(CC3)C2)c(Br)cn1 [Compound 201, (R)-2-(5-bromo-2-methoxypyridine-4-yl)-1-((S)-7-((6-methyl-5-(pyrimidine-2-yl)pyridine-2-yl)amino)-5-azaspiro[2.4]hept-5-yl)propan-1-one] | 1.41 |  |  |  |  |  |  | > 30000 |

Source: patent EP4620955A1, “MC4R ANTAGONIST COMPOUND, PHARMACEUTICAL COMPOSITION AND PHARMACEUTICAL USE THEREOF” (Changchun Genescience Pharmaceutical Co., Ltd., priority 2022, dated 2024)
